Each structure is given as a SMILES string. ≈ marks a conversion by molar mass, not a printed value.

The text below walks through data of ChEMBL document CHEMBL4265880, “Discovery of 3-Cyano- N-(3-(1-isobutyrylpiperidin-4-yl)-1-methyl-4-(trifluoromethyl)-1 H-pyrrolo[2,3- b]pyridin-5-yl)benzamide: A Potent, Selective, and Orally Bioavailable Retinoic Acid Receptor-Related Orphan Receptor C2 Inverse Agonist” (J Med Chem, 2018).

Series [1] in a line: Lipophilicity, log D of the compound at pH 7.4 by RP-HPLC analysis. Particulars: buffer. In kind it is physicochemical.
Series [2] can be described thus: Volume of distribution at steady state in Balb/c mouse at 1 mg/kg, iv or 30 mg/kg, po via gavage by LC-MS/MS analysis. In kind it is ADME, organism-based. Particulars: in vivo, read-out: Vdss.
Series [3] in a line: Volume of distribution at steady state in Beagle dog at 1 mg/kg, iv or 3 mg/kg, po via gavage by LC-MS/MS analysis. The series is classed as ADME, organism-based, Canis lupus familiaris. To be noted: in vivo, read-out: Vdss.
A short description of series [4]: Oral bioavailability in Wistar Han rat at 3 mg/kg administered as crystalline solid by LC-MS/MS analysis. The series is classed as ADME, organism-based. Particulars: in vivo.
Series [5] is described as follows: Thermodynamic solubility of the compound at pH 6.5. Particulars: buffer, read-out: Therm_solubility. The series is classed as physicochemical.
Series [6] can be described thus: Oral bioavailability in Beagle dog at 3 mg/kg administered via spray-dried dispersion measured over 24 hrs by LC-MS/MS analysis. The series is classed as ADME, organism-based, Canis lupus familiaris. Particulars: in vivo.
Series [7] can be described thus: Apparent permeability in RRCK cells. Particulars: dog, MDCK. In kind it is ADME, cell-based, Canis lupus familiaris, MDCKII-LE.
A short description of series [8]: Volume of distribution at steady state in Wistar Han rat at 1 mg/kg, iv or 3 mg/kg, po via gavage by LC-MS/MS analysis. The series is classed as ADME, organism-based. To be noted: in vivo, read-out: Vdss.
A short description of series [9]: Oral bioavailability in Balb/c mouse at 30 mg/kg administered via spray-dried dispersion by LC-MS/MS analysis. In kind it is ADME, organism-based. To be noted: in vivo.
Series [10] can be described thus: Oral bioavailability in Wistar Han rat at 3 mg/kg administered via spray-dried dispersion by LC-MS/MS analysis. In kind it is ADME, organism-based. To be noted: in vivo.

In turn, `CC(C)C(=O)N1CCC(c2cn(C)c3ncc(NC(=O)c4cccc(C#N)c4)c(C(C)C)c23)CC1` registered a logD in series [1] of 2.6. In the case of `CC(=O)N1CCC(c2cn(C)c3ncc(NC(=O)c4cccc(C#N)c4)c(C)c23)CC1`, in [1], the logD worked out at 1.6. Regarding `CC(C)C(=O)N1CCC(c2cn(C)c3ncc(NC(=O)c4cccc(C#N)c4)c(C(F)(F)F)c23)CC1`, the Vd in series [2] came out at 0.8 L/kg; in series [3], 1.5 L/kg; in series [8] it was 1.4 L/kg. Moreover, the bioavailability in series [4] was found to be 21%; in [6] it was 73%; in [9], 30%; in [10], 83%. In series [5], the solubility thermodynamic came out at 1 µM (≈ 0.498 µg/mL). This compound came in with a logD in series [1] of 3.7. Besides, the Papp in series [7] was 13.2 ×10⁻⁶ cm/s. `Cc1c(NC(=O)c2cccc(C#N)c2)cnc2c1c(C1CCN(C(=O)C3CCOC3)CC1)cn2C` (centres undefined) came in with a logD in [1] of 1.6.

In turn, `Cc1c(NC(=O)c2cccc(C#N)c2)cnc2c1c(C1CCN(C(=O)C3CCC3)CC1)cn2C` gave a logD in [1] of 2.6. On the same count and under the same terms, in the case of `Cn1cc(C2CCN(C(=O)C3CCCC3)CC2)c2cc(NC(=O)c3cccc(C#N)c3)cnc21` it was 3.8. The compound `Cn1cc(C2CCN(C(=O)C3CCCC3)CC2)c2cc(NC(=O)c3cc(C#N)ccn3)cnc21` gave a logD in [1] of 3.7. On the same count and under the same terms, in the case of `Cc1c(NC(=O)c2ccc(Cl)c(C#N)c2)cnc2c1c(C1CCN(C(=O)C(C)C)CC1)cn2C` it was 3.6; in that of `Cc1c(NC(=O)c2cccc(C#N)c2)cnc2c1c(C1CCN(C(=O)C3CCCCC3)CC1)cn2C`, 3.9; in that of `Cc1c(NC(=O)c2cccc(C#N)c2)cnc2c1c(C1CCN(C(=O)CC3CC3)CC1)cn2C`, 2.4.

`CCC(=O)N1CCC(c2cn(C)c3ncc(NC(=O)c4cccc(C#N)c4)c(C)c23)CC1` displayed a logD in series [1] of 2.

Regarding `Cc1c(NC(=O)c2ccc(F)c(C#N)c2)cnc2c1c(C1CCN(C(=O)C(C)C)CC1)cn2C`, in series [1], the logD amounted to 2.3. In series [1], `Cn1cc(C2CCN(C(=O)C3CCCC3)CC2)c2nc(NC(=O)c3cc(C#N)ccn3)ccc21` came in with a logD of 4.2. With `Cc1noc(C)c1C(=O)N1CCC(c2cn(C)c3ncc(NC(=O)c4cccc(C#N)c4)c(C)c23)CC1`, in [1], the logD is 2. In series [1], `Cn1cc(C2CCN(C(=O)C3CCCC3)CC2)c2cc(NC(=O)c3cc(C#N)ccn3)ccc21` displayed a logD of 4.3.

As for `Cc1c(NC(=O)c2cccc(C#N)c2)cnc2c1c(C1CCN(C(=O)C3CCCC3)CC1)cn2C`, in series [1], the logD was found to be 2.9.

The compound `COc1ccc(C(=O)Nc2cnc3c(c(C4CCN(C(=O)C(C)C)CC4)cn3C)c2C)cc1C#N` yielded a logD in series [1] of 2.4. `COc1c(NC(=O)c2cccc(C#N)c2)cnc2c1c(C1CCN(C(=O)C(C)C)CC1)cn2C` came in with a logD in series [1] of 2. Regarding `Cc1c(NC(=O)c2cccc(C#N)c2)ccc2c1c(C1CCN(C(=O)C3CCCC3)CC1)cn2C`, in series [1], the logD came out at 4. Turning to `Cc1cccc(F)c1C(=O)N1CCC(c2cn(C)c3ncc(NC(=O)c4cccc(C#N)c4)c(C)c23)CC1`, in series [1], the logD was 3.1. Turning to `Cc1ccc(C(=O)Nc2cnc3c(c(C4CCN(C(=O)C(C)C)CC4)cn3C)c2C)cc1C#N`, in series [1], the logD was found to be 2.3.

`Cn1cc(C2CCN(C(=O)C3CCCC3)CC2)c2cc(NC(=O)c3cccc(C#N)c3)ccc21`: in series [1], the logD worked out at 4.4. Take `Cc1c(NC(=O)c2cccc(C#N)c2)cnc2c1c(C1CCN(C(=O)CC(C)C)CC1)cn2C`: in series [1], the logD turned out to be 2.5. Compound `Cc1c(NC(=O)c2cccc(C#N)c2)cnc2c1c(C1CCN(C(=O)C3CC3)CC1)cn2C` displayed a logD in [1] of 2.3. Take `Cc1c(NC(=O)c2cccc(C#N)c2)cnc2c1c(C1CCN(C(=O)C(C)C)CC1)cn2C`: the logD in series [1] is 2.

As usually defined, the logD is the decadic logarithm of the distribution of all forms, ionised or not, between an organic phase and buffer at a given pH. For orientation: bioavailability means dose-corrected exposure relative to a reference, in per cent. Usually Papp stands for a coefficient for how fast a substance crosses the barrier.
